# Results as given in US10647713B2 (Nimbus Lakshmi, Inc., priority 2016, dated 2020).
# Target: human TYK2 (JH2domain-pseudokinase) (Homo sapiens (Human), UniProt P29597)
# Assay: TYK2 JH2 Domain Binding Assay (KINOMEscan, DiscoveRx)
# Conditions: 11-point dilution, duplicate
# How it was run: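 TYK2 JH2 (G556–D888)–NFkB DBD fusion, DNA-tagged, from HEK293 extracts (<0.1 nM) competed against immobilised biotinylated ligand for 1 h at room temperature, 0.9% DMSO. Bead-retained kinase quantified by qPCR; Kd from 11-point 3-fold series (top 30,000 nM, duplicate), Hill fit with slope −1.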
# Sequence of human TYK2 (JH2domain-pseudokinase) (P29597 556-888): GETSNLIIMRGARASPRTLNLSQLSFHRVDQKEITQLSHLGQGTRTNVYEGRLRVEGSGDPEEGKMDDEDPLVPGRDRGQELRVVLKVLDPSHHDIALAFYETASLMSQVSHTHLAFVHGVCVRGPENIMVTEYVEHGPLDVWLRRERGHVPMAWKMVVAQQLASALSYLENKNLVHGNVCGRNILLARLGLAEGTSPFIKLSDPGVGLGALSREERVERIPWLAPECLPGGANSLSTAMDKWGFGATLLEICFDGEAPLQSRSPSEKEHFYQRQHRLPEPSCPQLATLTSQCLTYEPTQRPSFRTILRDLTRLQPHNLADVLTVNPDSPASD
row,Kd,Structure (SMILES)
1,0.1 to 0.5 nM,"COc1c(Nc2cc(Nc3ccc(N4CC[C@H](OC)C4)c(C#N)n3)nc3[nH]c(C(F)F)nc23)cccc1-c1nnn(C)n1 [I-39, (S)-6-((2-(difluoromethyl)-7-((2-methoxy-3-(2-methyl-2H-tetrazol-5-yl)phenyl)amino)-3H-imidazo[4,5-b]pyridin-5-yl)amino)-3-(3-methoxypyrrolidin-1-yl)picolinonitrile]"
2,0.1 to 0.5 nM,"Cc1nc2c(Nc3ccc(-c4ncc(C)n4C)cc3N(C)S(C)(=O)=O)cc(NC(=O)C3CC3)nc2[nH]1 [I-170, N-(7-((4-(1,5-dimethyl-1H-imidazol-2-yl)-2-(N-methylmethyl-sulfonamido)phenyl)amino)-2-methyl-3H-imidazo[4,5-b]pyridin-5-yl)cyclopropanecarboxamide]"
3,1 to 10 nM,"COc1cc(-c2cncn2C)ccc1Nc1cc(NC(=O)C2CC2)nc2[nH]c(C)nc12 [I-151, N-(7-((2-methoxy-4-(1-methyl-1H-imidazol-5-yl)phenyl)amino)-2-methyl-3H-imidazo[4,5-b]pyridin-5-yl)cyclopropanecarboxamide]"
4,0.5 to 1 nM,"COc1c(Nc2cc(NC(=O)C3C[C@@H]3F)nc3[nH]c(C)nc23)cccc1-c1ncn(C)n1 (stereo in doubt) [I-368, 2-fluoro-N-(7-((2-methoxy-3-(1-methyl-1H-1,2,4-triazol-3-yl)phenyl)amino)-2-methyl-3H-imidazo[4,5-b]pyridin-5-yl)cyclopropane-1-carboxamide]"
5,0.1 to 0.5 nM,"Cc1nc2c(Nc3ccc(-c4ccn(C)n4)cc3S(C)(=O)=O)cc(NC(=O)[C@H]3C[C@H]3F)nc2[nH]1 [I-225, (1R,2R)-2-fluoro-N-(2-methyl-7-((4-(1-methyl-1H-pyrazol-3-yl)-2-(methylsulfonyl)phenyl)amino)-3H-imidazo[4,5-b]pyridin-5-yl)cyclopropane-1-carboxamide]"
6,1 to 10 nM,CN=[S@@](C)(=O)c1cc(-c2nc(COC)c(C)s2)ccc1Nc1cc(NC(=O)C2CC2)nc2[nH]c(C(F)F)nc12 [I-649]
7,0.5 to 1 nM,"COc1c(Nc2cc(Nc3ccc4c(n3)C(F)(F)CC4)nc3[nH]c(C)nc23)cccc1-c1ncnn1C [I-628, N5-(7,7-difluoro-6,7-dihydro-5H-cyclopenta[b]pyridin-2-yl)-N7-(2-methoxy-3-(1-methyl-1H-1,2,4-triazol-5-yl)phenyl)-2-methyl-3H-imidazo[4,5-b]pyridine-5,7-diamine]"
8,0.1 to 0.5 nM,CS(=O)(=O)c1cc(F)ccc1Nc1cc(Nc2cc3c(nn2)CCC3)nc2[nH]c(C(F)F)nc12 [I-633]
9,< 0.1 nM,"Cc1nc2c(Nc3ccc(C4CCCCO4)cc3S(C)(=O)=O)cc(Nc3cnc(C)c(C)n3)nc2[nH]1 (stereo not shown) [I-398, N5-(5,6-dimethylpyrazin-2-yl)-2-methyl-N7-(2-(methylsulfonyl)-4-(tetrahydro-2H-pyran-2-yl)phenyl)-3H-imidazo[4,5-b]pyridine-5,7-diamine]"
10,0.1 to 0.5 nM,"Cc1nc2c(Nc3ccc(C4CCC4)cc3S(C)(=O)=O)cc(NC(=O)[C@@H]3C[C@@H]3F)nc2[nH]1 [I-414, (1S,2S)—N-(7-((4-cyclobutyl-2-(methylsulfonyl)phenyl)amino)-2-methyl-3H-imidazo[4,5-b]pyridin-5-yl)-2-fluorocyclopropane-1-carboxamide]"
11,0.1 to 0.5 nM,"CN(c1cc(-c2ccn(C)n2)ccc1Nc1cc(NC(=O)C2CC2)nc2[nH]c(C(F)F)nc12)S(C)(=O)=O [I-171, N-(2-(difluoromethyl)-7-((4-(1-methyl-1H-pyrazol-3-yl)-2-(N-methylmethylsulfonamido)phenyl)amino)-3H-imidazo[4,5-b]pyridin-5-yl)cyclopropaneCarboxamide]"
12,1 to 10 nM,"COc1c(Nc2cc(Nc3cnc(N4CCOCC4)c(C#N)n3)nc3[nH]c(C)nc23)cccc1-c1nnn(C)n1 [I-116, 6-((7-((2-methoxy-3-(2-methyl-2H-tetrazol-5-yl)phenyl)amino)-2-methyl-3H-imidazo[4,5-b]pyridin-5-yl)amino)-3-morpholinopyrazine-2-carbonitrile]"
13,1 to 10 nM,"COc1c(Nc2cc(Nc3cccc(C#N)n3)nc3[nH]c(C(F)F)nc23)cccc1-c1nccs1 [I-558, 6-((2-(difluoromethyl)-7-((2-methoxy-3-(thiazol-2-yl)phenyl)amino)-3H-imidazo[4,5-b]pyridin-5-yl)amino)picolinonitrile]"
14,0.1 to 0.5 nM,"Cc1nc2c(Nc3ccc(-c4nn(C)cc4C)cc3S(C)(=O)=O)cc(Nc3cnc(C)c(C)n3)nc2[nH]1 [I-449, N7-(4-(1,4-dimethyl-1H-pyrazol-3-yl)-2-(methylsulfonyl)phenyl)-N5-(5,6-dimethylpyrazin-2-yl)-2-methyl-3H-imidazo[4,5-b]pyridine-5,7-diamine]"
15,0.1 to 0.5 nM,Cc1nc2c(Nc3ccc(-c4cnn(C)c4C)cc3S(C)(=O)=O)cc(Nc3ccc(C(C)C)c(C#N)n3)nc2[nH]1 [I-394]
16,< 0.1 nM,"Cc1cn(C)nc1-c1ccc(Nc2cc(NC(=O)C3CC3)nc3[nH]c(C(F)F)nc23)c(S(C)(=O)=O)c1 [I-246, N-(2-(difluoromethyl)-7-((4-(1,4-dimethyl-1H-pyrazol-3-yl)-2-(methylsulfonyl)phenyl)amino)-3H-imidazo[4,5-b]pyridin-5-yl)cyclopropanecarboxamide]"
17,1 to 10 nM,"CS(=O)(=O)c1cc([C@H]2CCCOC2)ccc1Nc1cc(NC(=O)C2CC2(F)F)nc2[nH]c(C(F)F)nc12 (stereo partly drawn) [I-360, N-(2-(difluoromethyl)-7-((2-(methylsulfonyl)-4-((R)-tetrahydro-2H-pyran-3-yl)phenyl)amino)-3H-imidazo[4,5-b]pyridin-5-yl)-2,2-difluorocyclopropane-1-carboxamide]"
18,0.5 to 1 nM,"Cc1nc2c(Nc3ccc([C@@H]4CCOC4)cc3S(C)(=O)=O)cc(NC(=O)C3CC3)nc2[nH]1 [I-291, (S)—N-(2-methyl-7-((2-(methylsulfonyl)-4-(tetrahydrofuran-3-yl)phenyl)amino)-3H-imidazo[4,5-b]pyridin-5-yl)cyclopropanecarboxamide]"

row,Structure (SMILES),Kd
1,"CS(=O)(=O)c1cc(C2COCCO2)ccc1Nc1cc(NC(=O)C2CC2)nc2[nH]c(C(F)F)nc12 (stereo in doubt) [I-613, (R)—N-(7-((4-(1,4-dioxan-2-yl)-2-(methylsulfonyl)phenyl)amino)-2-(difluoromethyl)-3H-imidazo[4,5-b]pyridin-5-yl)cyclopropanecarboxamide]",0.1 to 0.5 nM
2,"Cc1nc2c(Nc3ccc(-c4nc(C)c(C)s4)cc3S(C)(=O)=O)cc(NC(=O)C3CC3)nc2[nH]1 [I-312, N-(7-((4-(4,5-dimethylthiazol-2-yl)-2-(methylsulfonyl)phenyl)amino)-2-methyl-3H-imidazo[4,5-b]pyridin-5-yl)cyclopropanecarboxamide]",0.1 to 0.5 nM
3,"CS(=O)(=O)c1cc(Cl)ccc1Nc1cc(Nc2cccc(C#N)n2)nc2[nH]c(C(F)F)nc12 [I-191, 6-((7-((4-chloro-2-(methylsulfonyl)phenyl)amino)-2-(difluoromethyl)-3H-imidazo[4,5-b]pyridin-5-yl)amino)picolinonitrile]",0.5 to 1 nM
4,"Cc1csc(-c2ccc(Nc3cc(NC(=O)C4CC4)nc4[nH]c(C)nc34)c(S(C)(=O)=O)c2)n1 [I-289, N-(2-methyl-7-((2-(methylsulfonyl)-4-(4-methylthiazol-2-yl)phenyl)amino)-3H-imidazo[4,5-b]pyridin-5-yl)cyclopropanecarboxamide]",0.1 to 0.5 nM
